From ChEMBL document CHEMBL4390688, “Accelerating the discovery of DGAT1 inhibitors through the application of parallel medicinal chemistry (PMC)” (Bioorg Med Chem Lett, 2019)

How the values were obtained:
[1] = target: T1, Diacylglycerol O-acyltransferase 1 (Mus musculus, UniProt Q9Z2A7)
T1 sequence (Q9Z2A7 whole entry): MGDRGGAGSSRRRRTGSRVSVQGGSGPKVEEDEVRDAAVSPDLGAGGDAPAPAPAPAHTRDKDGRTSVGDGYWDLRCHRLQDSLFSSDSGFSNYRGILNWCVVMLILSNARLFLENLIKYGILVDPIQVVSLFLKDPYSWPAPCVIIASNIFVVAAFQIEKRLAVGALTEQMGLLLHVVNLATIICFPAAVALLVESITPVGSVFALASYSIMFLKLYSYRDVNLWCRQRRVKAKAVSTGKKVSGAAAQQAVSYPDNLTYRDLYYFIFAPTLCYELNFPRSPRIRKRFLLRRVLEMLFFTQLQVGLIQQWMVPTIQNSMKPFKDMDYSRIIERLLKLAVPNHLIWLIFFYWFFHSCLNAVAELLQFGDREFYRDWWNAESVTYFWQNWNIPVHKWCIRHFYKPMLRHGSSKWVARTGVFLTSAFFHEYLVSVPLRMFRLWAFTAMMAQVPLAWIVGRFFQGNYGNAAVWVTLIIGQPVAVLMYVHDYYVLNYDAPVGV
Description: Inhibition of mouse DGAT1

[2] = target: Voltage-gated inwardly rectifying potassium channel KCNH2 (Homo sapiens, UniProt Q12809); assay: Inhibition of human ERG
Voltage-gated inwardly rectifying potassium channel KCNH2, sequence (Q12809 whole entry): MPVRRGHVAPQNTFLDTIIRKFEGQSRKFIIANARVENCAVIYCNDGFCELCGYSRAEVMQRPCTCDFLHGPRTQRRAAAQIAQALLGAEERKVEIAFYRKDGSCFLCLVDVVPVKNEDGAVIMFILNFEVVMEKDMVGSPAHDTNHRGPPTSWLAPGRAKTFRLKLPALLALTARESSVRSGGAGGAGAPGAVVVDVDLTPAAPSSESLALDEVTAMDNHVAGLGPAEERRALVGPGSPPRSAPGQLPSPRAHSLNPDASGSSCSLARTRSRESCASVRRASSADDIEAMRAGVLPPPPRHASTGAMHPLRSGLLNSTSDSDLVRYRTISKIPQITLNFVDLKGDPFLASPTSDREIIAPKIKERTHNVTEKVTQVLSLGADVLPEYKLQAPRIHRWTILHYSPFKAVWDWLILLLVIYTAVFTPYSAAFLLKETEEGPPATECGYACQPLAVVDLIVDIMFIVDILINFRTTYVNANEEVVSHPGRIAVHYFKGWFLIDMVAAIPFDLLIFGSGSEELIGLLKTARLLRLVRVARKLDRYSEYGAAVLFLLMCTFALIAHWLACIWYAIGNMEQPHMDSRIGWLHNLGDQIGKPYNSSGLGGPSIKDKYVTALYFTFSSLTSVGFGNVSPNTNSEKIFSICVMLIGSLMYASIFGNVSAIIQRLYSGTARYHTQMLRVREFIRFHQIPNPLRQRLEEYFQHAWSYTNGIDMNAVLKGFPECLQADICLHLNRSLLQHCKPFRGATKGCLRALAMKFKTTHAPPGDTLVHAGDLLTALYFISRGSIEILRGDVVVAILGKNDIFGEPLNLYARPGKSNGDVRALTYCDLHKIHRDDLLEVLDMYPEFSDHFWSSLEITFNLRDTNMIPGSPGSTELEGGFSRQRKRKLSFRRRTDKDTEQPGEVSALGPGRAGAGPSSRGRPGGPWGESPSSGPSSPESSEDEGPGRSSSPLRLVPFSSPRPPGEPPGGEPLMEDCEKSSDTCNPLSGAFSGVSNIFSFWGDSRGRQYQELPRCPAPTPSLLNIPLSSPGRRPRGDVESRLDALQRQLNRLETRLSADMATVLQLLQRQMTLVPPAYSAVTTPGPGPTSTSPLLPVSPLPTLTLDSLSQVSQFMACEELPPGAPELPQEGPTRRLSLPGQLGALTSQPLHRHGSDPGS

[3] = target: T2, Sterol O-acyltransferase 1 (Homo sapiens, UniProt P35610)
T2 sequence (P35610 whole entry): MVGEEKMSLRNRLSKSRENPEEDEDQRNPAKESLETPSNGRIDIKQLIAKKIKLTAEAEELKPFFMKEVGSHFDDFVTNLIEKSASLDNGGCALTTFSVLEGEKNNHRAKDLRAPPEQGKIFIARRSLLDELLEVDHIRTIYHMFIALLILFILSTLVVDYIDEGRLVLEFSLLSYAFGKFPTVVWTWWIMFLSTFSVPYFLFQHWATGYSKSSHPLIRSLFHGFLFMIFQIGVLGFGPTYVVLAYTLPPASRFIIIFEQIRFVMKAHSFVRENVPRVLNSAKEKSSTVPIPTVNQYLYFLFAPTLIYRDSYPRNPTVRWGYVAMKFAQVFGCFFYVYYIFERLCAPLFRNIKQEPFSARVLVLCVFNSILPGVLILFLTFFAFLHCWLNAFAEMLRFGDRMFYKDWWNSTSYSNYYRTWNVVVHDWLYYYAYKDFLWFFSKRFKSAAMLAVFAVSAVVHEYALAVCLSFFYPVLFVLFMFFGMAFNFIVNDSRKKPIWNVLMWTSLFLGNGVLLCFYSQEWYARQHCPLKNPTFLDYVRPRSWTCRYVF
Description: Inhibition of human ACAT1

[4] = target: T3, Diacylglycerol O-acyltransferase 1 (Homo sapiens, UniProt O75907)
T3 sequence (O75907 whole entry): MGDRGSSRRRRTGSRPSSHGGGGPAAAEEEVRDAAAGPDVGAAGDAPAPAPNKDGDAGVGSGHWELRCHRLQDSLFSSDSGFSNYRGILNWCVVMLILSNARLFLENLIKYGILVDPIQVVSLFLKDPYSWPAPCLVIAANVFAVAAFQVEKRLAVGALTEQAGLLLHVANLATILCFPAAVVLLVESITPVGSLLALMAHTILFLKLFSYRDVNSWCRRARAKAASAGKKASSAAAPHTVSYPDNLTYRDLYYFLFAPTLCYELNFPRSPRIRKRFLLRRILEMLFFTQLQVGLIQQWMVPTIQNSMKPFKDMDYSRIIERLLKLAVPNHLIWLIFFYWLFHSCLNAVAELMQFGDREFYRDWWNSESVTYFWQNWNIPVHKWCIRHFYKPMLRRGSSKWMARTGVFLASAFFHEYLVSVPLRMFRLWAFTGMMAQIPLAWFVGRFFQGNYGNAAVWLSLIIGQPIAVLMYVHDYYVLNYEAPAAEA
Description: Inhibition of human DGAT1

Mus musculus = assay: Reduction in lipid excursion in mouse at 10 mg/kg, po QD measured at 18 hrs post dose by lipid tolerance test relative to control; type: functional; parameters: scale not given: the % may be the effect or the level left
[5] = Distribution coefficient, log D of compound; type: physicochemical; conditions: octanol/water
Adenosine receptor A2a = Adenosine receptor A2a (Homo sapiens, UniProt P29274); assay: Activity against human A2AR assessed as inhibition of cAMP accumulation by cAMP functional assay
Adenosine receptor A2a, sequence (P29274 whole entry): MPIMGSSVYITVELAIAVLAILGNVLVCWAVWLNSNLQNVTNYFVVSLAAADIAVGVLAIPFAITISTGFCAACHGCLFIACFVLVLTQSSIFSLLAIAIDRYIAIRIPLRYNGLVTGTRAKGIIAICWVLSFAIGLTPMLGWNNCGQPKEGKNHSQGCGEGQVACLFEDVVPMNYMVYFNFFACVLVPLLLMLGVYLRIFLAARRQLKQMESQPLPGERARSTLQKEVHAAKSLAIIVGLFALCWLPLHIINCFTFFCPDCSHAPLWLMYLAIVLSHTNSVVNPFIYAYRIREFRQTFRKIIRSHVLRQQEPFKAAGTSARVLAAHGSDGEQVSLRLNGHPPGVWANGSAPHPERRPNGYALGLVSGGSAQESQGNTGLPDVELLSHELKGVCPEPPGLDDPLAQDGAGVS

IC50 [1]	IC50 [3]	IC50 [4]	logD [5]	Ki (Adenosine receptor A2a)	IC50 (Adenosine receptor A2a)	Compound	Ki [2]	Activity (Mus musculus)
21 nM	> 10000 nM	4.2 nM	1.51	–	–	O=C(O)C1CCCCC1Nc1ccc(-c2ccc(-c3nc4cc(Cl)ccc4[nH]3)cn2)cn1 (racemic)	3560 nM	0%
2.8 nM	> 2000 nM	1.5 nM	–	–	–	O=C(O)[C@H]1CC[C@@H](Oc2ccc(-c3ccc(-c4nc5cc(Cl)ccc5[nH]4)cn3)cn2)CC1	5390 nM	144%
30 nM	> 2000 nM	3.6 nM	1.19	–	–	O=C(O)C1CC1COc1ccc(-c2ccc(-c3nc4cc(Cl)ccc4[nH]3)cn2)cn1 (racemic)	19000 nM	91%
36 nM	> 2000 nM	4.5 nM	1.43	–	–	CC1(C(=O)O)CCCN(c2ccc(-c3ccc(-c4nc5cc(Cl)ccc5[nH]4)cn3)cn2)C1 (racemic)	1980 nM	63%
11 nM	1650 nM	3.1 nM	1.35	–	–	O=C(O)C1(COc2ccc(-c3ccc(-c4nc5cc(Cl)ccc5[nH]4)cn3)cn2)CC1	10800 nM	50%
1.4 nM	971 nM	0.7 nM	1.44	–	–	CC(C)(COc1ccc(-c2ccc(-c3nc4cc(Cl)ccc4[nH]3)cn2)cn1)C(=O)O	8140 nM	–
247 nM	> 2000 nM	22 nM	1.29	–	–	O=C(O)C1CC(Nc2ccc(-c3ccc(-c4nc5cc(Cl)ccc5[nH]4)cn3)cn2)C1 (racemic)	> 60000 nM	–
33 nM	> 2000 nM	4.5 nM	1.56	–	–	CC1(C)CN(c2ccc(-c3ccc(-c4nc5cc(Cl)ccc5[nH]4)cn3)cn2)CCC1CC(=O)O (racemic)	1740 nM	66%
48 nM	> 2000 nM	5.4 nM	1.37	–	–	O=C(O)C1CCC(Nc2ccc(-c3ccc(-c4nc5cc(Cl)ccc5[nH]4)cn3)cn2)CC1 (racemic)	3750 nM	70%
36 nM	> 10000 nM	5.3 nM	1.16	–	–	O=C(O)C1(COc2ccc(-c3ccc(-c4nc5cc(Cl)ccc5[nH]4)cn3)cn2)COC1	6540 nM	87%
5 nM	1720 nM	1.7 nM	1.24	–	–	O=C(O)C1(COc2ccc(-c3ccc(-c4nc5cc(Cl)ccc5[nH]4)cn3)cn2)CCC1	20000 nM	89%
20 nM	> 10000 nM	2.9 nM	1.33	–	–	O=C(O)C1(CNc2ccc(-c3ccc(-c4nc5cc(Cl)ccc5[nH]4)cn3)cn2)CC1	12100 nM	0%
24 nM	> 2000 nM	3.5 nM	1.16	–	–	O=C(O)C1CC(Oc2ccc(-c3ccc(-c4nc5cc(Cl)ccc5[nH]4)cn3)cn2)C1 (racemic)	20200 nM	54%
108 nM	> 2000 nM	10.2 nM	1.48	–	–	O=C(O)CC1CCN(c2ccc(-c3ccc(-c4nc5cc(Cl)ccc5[nH]4)cn3)cn2)CC1	5220 nM	62%
1.7 nM	–	–	–	–	–	O=C(O)C[C@H]1CC[C@@H](Oc2ccc(-c3ccc(-c4nc5cc(Cl)ccc5[nH]4)cn3)cn2)CC1	3000 nM	–
6.3 nM	1970 nM	2.6 nM	1.39	–	–	O=C(O)[C@H]1CC[C@H](Oc2ccc(-c3ccc(-c4nc5cc(Cl)ccc5[nH]4)cn3)cn2)CC1	3520 nM	83%
84 nM	> 10000 nM	9.6 nM	1.3	–	–	O=C(O)c1ccc(CNc2ccc(-c3ccc(-c4nc5cc(Cl)ccc5[nH]4)cn3)cn2)cc1	11900 nM	–

Further lines, the molecule ahead of its results:

Compound	IC50 [1]	IC50 [3]	IC50 [4]	logD [5]	Ki (Adenosine receptor A2a)	IC50 (Adenosine receptor A2a)	Ki [2]	Activity (Mus musculus)
N#Cc1ccc2[nH]c(-c3ccc(N4CCC(O[C@H]5CC[C@H](CC(=O)O)CC5)CC4)nc3)nc2c1	528 nM	> 10000 nM	–	–	–	–	3000 nM	–
FC(F)(F)c1ccc2[nH]c(-c3ccc(-c4ccccc4)cc3)nc2c1	–	–	1330 nM	–	–	–	2310 nM	–
N#Cc1ccc(-c2ccc(-c3nc4cc(C(F)(F)F)ccc4[nH]3)cc2)cc1	–	1400 nM	98 nM	–	–	–	616 nM	–
O=C(O)C[C@H]1CC[C@H](OC2CCN(c3ccc(-c4nc5cc(Cl)cnc5[nH]4)cn3)CC2)CC1	271 nM	> 10000 nM	–	–	–	–	–	–
O=C(O)C[C@H]1CC[C@@H](Oc2ccc(-c3ccc(-c4nc5cc(C(F)(F)F)ccc5[nH]4)cn3)cn2)CC1	1.5 nM	–	–	–	–	–	4100 nM	–
O=C(O)[C@H]1CC[C@@H](OC2CCN(c3ccc(-c4nc5cc(F)ccc5[nH]4)cn3)CC2)CC1	–	> 10000 nM	–	–	> 10000 nM	–	–	–
O=C(O)C[C@H]1CC[C@@H](Oc2ccc(-c3ccc(-c4nc5cc(Cl)cnc5[nH]4)cn3)cn2)CC1	5.9 nM	1630 nM	3.2 nM	–	–	–	8600 nM	–
COc1ccc2[nH]c(-c3ccc(N4CCC(O[C@H]5CC[C@H](CC(=O)O)CC5)CC4)nc3)nc2n1	78 nM	> 10000 nM	–	–	–	–	20500 nM	–
O=C(O)C[C@H]1CC[C@H](c2ccc(-c3ccc(-c4nc5cc(C(F)(F)F)ccc5[nH]4)cc3)cc2)CC1	1.8 nM	–	–	2.31	–	–	–	–
Cc1ccc2[nH]c(-c3ccc(N4CCC(O[C@H]5CC[C@H](CC(=O)O)CC5)CC4)nc3)nc2n1	1910 nM	–	–	–	–	–	–	–
O=C(O)C[C@H]1CC[C@H](OC2CCN(c3ccc(-c4nc5cc(C(F)(F)F)cnc5[nH]4)cn3)CC2)CC1	125 nM	> 10000 nM	23.6 nM	–	–	–	12000 nM	–
O=C(O)C[C@H]1CC[C@@H](Oc2ccc(-c3ccc(-c4nc5c(F)cc(F)cc5[nH]4)cn3)cn2)CC1	2.3 nM	–	–	–	–	–	3800 nM	–
CN1CCN(c2ccc(-c3ccc(-c4nc5cc(C(F)(F)F)ccc5[nH]4)cc3)cn2)CC1	–	2720 nM	70 nM	–	–	–	426 nM	–
O=C(O)C1CCC2(CCN(c3ccc(-c4nc5cc(C(F)(F)F)ccc5[nH]4)cn3)CC2)OC1 (racemic)	–	> 10000 nM	–	–	> 10000 nM	–	–	–
FC(F)(F)c1ccc2[nH]c(-c3ccc(-c4cccnc4)cc3)nc2c1	–	–	127 nM	–	–	–	1430 nM	–
Oc1ccc(-c2ccc(-c3nc4cc(C(F)(F)F)ccc4[nH]3)cc2)cc1	–	–	451 nM	–	–	–	1640 nM	–
FC(F)(F)c1ccc2[nH]c(-c3ccc(-c4ccc(N5CCOCC5)nc4)cc3)nc2c1	–	1320 nM	65 nM	–	–	–	13000 nM	–
O=C(O)C[C@H]1CC[C@@H](Oc2ccc(-c3ccc(-c4nc5cc(F)c(F)cc5[nH]4)cn3)cn2)CC1	2.6 nM	> 2000 nM	1.7 nM	–	–	–	19000 nM	–
Cc1ccc2[nH]c(-c3ccc(-c4ccc(O[C@H]5CC[C@@H](CC(=O)O)CC5)nc4)nc3)nc2n1	–	> 10000 nM	30.8 nM	–	–	490 nM	> 60000 nM	–
N#Cc1ccc(-c2ccc(-c3nc4cc(C(F)(F)F)ccc4[nH]3)cc2)cn1	–	> 10000 nM	38 nM	–	–	–	> 60000 nM	–
CN1CCN(c2ccc(-c3ccc(-c4nc5cc(C(F)(F)F)ccc5[nH]4)cc3)cc2)CC1	–	1350 nM	66 nM	–	–	–	820 nM	–
O=C(O)C[C@H]1CC[C@H](c2ccc(-c3ccc(-c4nc5cc(Cl)ccc5[nH]4)cc3)cc2)CC1	–	–	–	2.08	–	–	–	–
